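In this assay, cells in 96-well plates receive the compound at five concentrations for 48 hours. Endpoints are linearly interpolated between the surrounding concentrations. GI50 marks 50% less growth. TGI: total growth inhibition.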

Experiment in all cases: DTP human tumour cell line panel, 48 h
For experiment [1], the system named is DU-145 prostate.
Experiment [2] relates to EKVX NSCLC.
The test system of experiment [3] is HL-60(TB) leukemia.
Experiment [4] relates to NCI-H226 lung.
For experiment [5], the system named is NCI-H23 lung.
For experiment [6], the system named is OVCAR-8 ovarian.
In experiment [7] the test system is RXF 393 renal.
In experiment [8] the test system is SK-OV-3 ovarian.
Experiment [9] concerns UACC-62 melanoma.
Experiment [10] concerns UO-31 renal.

On to `CNC(=O)c1ccc(N2C(=S)N(c3cnc(C#N)c(C(F)(F)F)c3)C(=O)C23CCC3)cc1F`, for which the GI50 in [1] was greater than 100000 nM; in experiment [2] it was greater than 100000 nM; in experiment [3], 63900 nM; in experiment [4], greater than 100000 nM; in [5], greater than 100000 nM; in [6], greater than 100000 nM. Moreover, the GI50 in experiment [7] is greater than 44800 nM; in experiment [8], greater than 100000 nM; in [9] it was greater than 70500 nM; in [10], greater than 72100 nM. Further, the TGI in [1], in experiment [2], in [3], in [4], in experiment [5] and in [6] was greater than 100 µM in each case. Moreover, the concentration for total growth inhibition (TGI) in experiment [7], in experiment [8], in experiment [9] and in experiment [10] was greater than 100 µM throughout.

On to `Cc1cc2c(C(=O)NC[C@H](C)c3ccccc3)c(O)c(O)cc2c(O)c1-c1c(C)cc2c(C(=O)NC[C@H](C)c3ccccc3)c(O)c(O)cc2c1O`, for which the concentration for 50% growth inhibition (GI50) in experiment [1] was 300 nM; in experiment [2], 411 nM; in experiment [3] it was 901 nM; in experiment [4], 244 nM; in experiment [5], 57.1 nM; in experiment [6] it was 588 nM. For the same compound, the GI50 in [7] was 197 nM; in experiment [8], 431 nM; in experiment [9], 146 nM; in experiment [10], 285 nM. For the same compound, the TGI in [1] came to 14.3 µM; in [2], 8.1 µM; in experiment [3] it was 8.57 µM; in experiment [4], 0.987 µM; in experiment [5], 1.65 µM; in experiment [6] it was 10.1 µM. For the same compound, the TGI in experiment [7] turned out to be 0.895 µM; in experiment [8], 2.8 µM; in experiment [9], 0.486 µM; in experiment [10], 1.24 µM.

In the case of `CCc1nc(N)nc(N)c1-c1ccc(Cl)c([N+](=O)[O-])c1`, the TGI is greater than 100 µM in experiment [1]; greater than 100 µM in experiment [2]; greater than 51.5 µM in [3]; greater than 100 µM in [4]; greater than 100 µM in [5]; greater than 100 µM in [6]. For the same compound, the total growth inhibition concentration (TGI) in experiment [7] was greater than 100 µM; in [8] it was greater than 100 µM; in experiment [9], greater than 86.4 µM; in experiment [10] it was greater than 100 µM.

As to `C/C=C(\C)c1cc(=O)c2c(C)cc3c(c2o1)C(=O)c1c(O)c(C2CC(C)(N(C)C)C(OC(C)=O)C(C)O2)cc(C2CC(N(C)C)C(O)C(C)O2)c1C3=O` (stereo not given), the TGI in experiment [1] is greater than 50 µM; in [2], 5.38 µM; in experiment [3] it was greater than 50 µM; in experiment [4] it was 5.57 µM; in experiment [5] it was greater than 11.9 µM; in experiment [6], greater than 17.5 µM. Further, the concentration for total growth inhibition (TGI) is 1.27 µM in experiment [7], greater than 50 µM in experiment [8], 3.97 µM in experiment [9] and 7.87 µM in experiment [10].

`O=C(O)CSc1n[nH]c(=O)[nH]c1=O`: the total growth inhibition concentration (TGI) in experiment [1], in experiment [2], in experiment [3], in [4], in experiment [5] and in [6] was greater than 100 µM each time. Further, the TGI in experiment [7], in experiment [8], in experiment [9] and in [10] was greater than 100 µM each time.

Consider `COc1ccc2c(c1)C(=O)c1c-2n(CCCN(C)C)c(=O)c2ccccc12`, for which the GI50 is 249 nM in experiment [1]; 645 nM in [2]; 321 nM in experiment [3]; 413 nM in experiment [4]; 318 nM in experiment [5]; 186 nM in experiment [6]. In addition, the GI50 was 530 nM in experiment [7], 382 nM in [8], 922 nM in experiment [9] and 167 nM in experiment [10]. Besides, the concentration for total growth inhibition (TGI) is 2.82 µM in experiment [1]; 8.45 µM in experiment [2]; 2.64 µM in experiment [3]; 2.59 µM in experiment [4]; 1.31 µM in experiment [5]; 11.3 µM in [6]. In addition, the TGI was determined as 2.34 µM in [7], 3.14 µM in experiment [8], 2.5 µM in [9] and 0.811 µM in experiment [10].

Turning to `COC(COC(N)=O)C1=C(N2CC2)C(=O)C(C)=C(N2CC2)C1=O` (stereo not given), the concentration for total growth inhibition (TGI) in experiment [1] was 0.0264 µM; in [2] it was 1.24 µM; in experiment [3], 2.72 µM; in experiment [4] it was 0.299 µM; in experiment [5] it was 0.0907 µM; in experiment [6], 0.24 µM. The concentration for total growth inhibition (TGI) in experiment [7] was determined as 0.256 µM; in experiment [8] it was 1.8 µM; in [9] it was 0.173 µM; in [10], 0.0796 µM.

In the case of `COc1ccc2ncn(-c3cc(O[C@H](C)c4ccccc4C(F)(F)F)c(C(N)=O)s3)c2c1`, the GI50 was 78.4 nM in experiment [1]; 1330 nM in experiment [2]; 90.5 nM in [3]; 3070 nM in experiment [4]; 113 nM in [5]; 117 nM in experiment [6]. For the same compound, the concentration for 50% growth inhibition (GI50) was 90.2 nM in experiment [7], 100 nM in [8], 142 nM in experiment [9] and 1790 nM in [10]. For the same compound, the TGI in experiment [1] came to 0.242 µM; in experiment [2], 13.1 µM; in [3] it was 1.01 µM; in [4], 12.4 µM; in experiment [5], 5.9 µM; in [6], 8.81 µM. The total growth inhibition concentration (TGI) in experiment [7] was determined as 3.72 µM; in experiment [8], 5.56 µM; in experiment [9], 4.58 µM; in experiment [10], 12.4 µM.

For `O=c1oc2ccc(I)cc2c(=O)n1-c1ccc(Br)cc1F`, the GI50 in [1] was 1040 nM; in experiment [2] it was 1340 nM; in experiment [3] it was 588 nM; in experiment [4], 1270 nM; in experiment [5], 658 nM; in experiment [6], 821 nM. Also, the GI50 in experiment [7] is 1020 nM; in experiment [8], 614 nM; in [9] it was 310 nM; in experiment [10] it was 330 nM. Besides, the TGI in experiment [1] was determined as 28.8 µM; in [2], 7.11 µM; in experiment [3], 3.74 µM; in [4] it was 4.39 µM; in experiment [5], 3.99 µM; in [6] it was 11.8 µM. The TGI was found to be 4.39 µM in experiment [7], 2.97 µM in experiment [8], 1.17 µM in [9] and 2.72 µM in experiment [10].

With `CC(=O)O[C@@H]1C2CCC3C(CC[C@@]4(C)C3CC[C@@H]4C(C)N(C)C)[C@@]2(C)CC[C@@H]1NC(=O)C=C(C)C` (stereo not given in full), the GI50 in experiment [1] is 4000 nM; in [2], 2800 nM; in experiment [3] it was 2590 nM; in experiment [4], 5220 nM; in experiment [5] it was 3130 nM; in [6] it was 4640 nM. Also, the GI50 in experiment [7] was 1460 nM; in [8], 3610 nM; in [9] it was 2030 nM; in [10], 1500 nM. The TGI in experiment [1] was 16.4 µM; in [2] it was 16.6 µM; in experiment [3], 6.19 µM; in experiment [4], 19.6 µM; in [5], 14 µM; in experiment [6] it was greater than 35.7 µM. Also, the TGI was 3.21 µM in experiment [7], 10.3 µM in experiment [8], 3.96 µM in [9] and 3.33 µM in experiment [10].

`COc1ccc(C2(Cl)c3ccccc3N(c3ccccc3)c3ccccc32)cc1`: the GI50 is 536 nM in experiment [1]; 250 nM in experiment [2]; 542 nM in [3]; 1010 nM in experiment [4]; 329 nM in experiment [5]; 203 nM in experiment [6]. The GI50 in experiment [7] is 718 nM; in experiment [8], 495 nM; in experiment [9] it was 191 nM; in experiment [10], 846 nM. The TGI in [1] came to 2.04 µM; in [2], 2.9 µM; in experiment [3], 4.25 µM; in experiment [4] it was 3.55 µM; in experiment [5] it was 1.81 µM; in experiment [6] it was 2.7 µM. The TGI stood at 2.56 µM in experiment [7], 2.74 µM in [8], 1.4 µM in experiment [9] and 10.8 µM in [10].

Consider `O=C1Nc2c(ccc(Cl)c2Cl)/C1=C/c1cc(Br)c(O)c(Br)c1`, for which the GI50 in experiment [1] is 14300 nM; in experiment [2], 4540 nM; in [3], 3010 nM; in experiment [4] it was 11500 nM; in experiment [5], 4910 nM; in [6], 10000 nM. Also, the GI50 was 7320 nM in experiment [7], 4880 nM in [8], 2490 nM in [9] and 14500 nM in experiment [10]. Besides, the total growth inhibition concentration (TGI) in [1] was greater than 100 µM; in [2] it was 97.3 µM; in [3], greater than 23.8 µM; in [4] it was 60.4 µM; in experiment [5], greater than 65.7 µM; in [6], greater than 100 µM. For the same compound, the total growth inhibition concentration (TGI) in experiment [7] was 35.2 µM; in experiment [8], 30.4 µM; in experiment [9] it was 13.3 µM; in experiment [10] it was greater than 49.7 µM.

With `Oc1ccc(C=Nc2ccccc2O)cc1`, the TGI was 31.6 µM in experiment [1]; greater than 100 µM in experiment [2]; 42.1 µM in experiment [3]; greater than 100 µM in experiment [4]; greater than 100 µM in [5]; greater than 100 µM in [6]. Moreover, the TGI in experiment [7], in [8], in experiment [9] and in experiment [10] was greater than 100 µM throughout.

As a reminder, the GI50 is the concentration giving 50% growth inhibition. The TGI is the concentration at which net growth stops. Read a low TGI as more potent growth arrest.

For the origin of these results see PubChem BioAssay (NCI).
